In BindingDB's records for doi:10.1124/jpet.102.047183 (Abbott Laboratories, 2003) one finds Ki data, which are given here for 5 molecules.

Among the targets are Histamine H2 receptor (Homo sapiens, UniProt P25021); Histamine H1 receptor (Homo sapiens, UniProt P35367); Hrh3 protein (Rattus norvegicus, UniProt Q5PPG3); Histamine receptor H3 (Canis lupus familiaris, UniProt Q865E3); Histamine H4 receptor (Homo sapiens, UniProt Q9H3N8).
Assay [1] concerns the target T1, Alpha-2A adrenergic receptor (Homo sapiens, UniProt P08913).
T1 sequence (P08913 whole entry): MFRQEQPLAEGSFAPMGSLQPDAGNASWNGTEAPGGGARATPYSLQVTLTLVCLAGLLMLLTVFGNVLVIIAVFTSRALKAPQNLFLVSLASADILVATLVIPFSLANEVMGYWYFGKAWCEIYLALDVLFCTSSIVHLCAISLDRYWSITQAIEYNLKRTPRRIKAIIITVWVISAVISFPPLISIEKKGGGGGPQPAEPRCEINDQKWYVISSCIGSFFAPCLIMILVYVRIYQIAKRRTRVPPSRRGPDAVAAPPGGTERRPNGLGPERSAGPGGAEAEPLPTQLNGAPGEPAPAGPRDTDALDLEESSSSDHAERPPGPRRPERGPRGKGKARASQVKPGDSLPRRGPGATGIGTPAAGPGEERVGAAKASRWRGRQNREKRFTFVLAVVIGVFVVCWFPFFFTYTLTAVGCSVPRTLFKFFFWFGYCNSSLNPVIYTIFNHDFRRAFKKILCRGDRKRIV

Assay [2] deals with T2, 5-hydroxytryptamine receptor 3A (Rattus norvegicus, UniProt P35563).
T2 sequence (P35563 whole entry): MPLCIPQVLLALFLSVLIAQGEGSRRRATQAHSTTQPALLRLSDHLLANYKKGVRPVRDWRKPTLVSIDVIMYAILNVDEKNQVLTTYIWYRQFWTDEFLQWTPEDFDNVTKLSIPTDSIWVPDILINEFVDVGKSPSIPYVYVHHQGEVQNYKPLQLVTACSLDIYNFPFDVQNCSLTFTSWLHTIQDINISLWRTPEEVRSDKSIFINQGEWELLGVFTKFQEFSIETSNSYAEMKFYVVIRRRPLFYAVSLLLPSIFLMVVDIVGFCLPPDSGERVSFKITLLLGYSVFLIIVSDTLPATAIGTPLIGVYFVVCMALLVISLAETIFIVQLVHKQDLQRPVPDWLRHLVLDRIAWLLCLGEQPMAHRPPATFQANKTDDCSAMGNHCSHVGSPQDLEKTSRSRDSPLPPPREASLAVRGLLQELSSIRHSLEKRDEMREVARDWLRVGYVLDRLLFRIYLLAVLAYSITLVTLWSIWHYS

For assay [3], the target named is T3, Alpha-2C adrenergic receptor (Homo sapiens, UniProt P18825).
T3 sequence (P18825 whole entry): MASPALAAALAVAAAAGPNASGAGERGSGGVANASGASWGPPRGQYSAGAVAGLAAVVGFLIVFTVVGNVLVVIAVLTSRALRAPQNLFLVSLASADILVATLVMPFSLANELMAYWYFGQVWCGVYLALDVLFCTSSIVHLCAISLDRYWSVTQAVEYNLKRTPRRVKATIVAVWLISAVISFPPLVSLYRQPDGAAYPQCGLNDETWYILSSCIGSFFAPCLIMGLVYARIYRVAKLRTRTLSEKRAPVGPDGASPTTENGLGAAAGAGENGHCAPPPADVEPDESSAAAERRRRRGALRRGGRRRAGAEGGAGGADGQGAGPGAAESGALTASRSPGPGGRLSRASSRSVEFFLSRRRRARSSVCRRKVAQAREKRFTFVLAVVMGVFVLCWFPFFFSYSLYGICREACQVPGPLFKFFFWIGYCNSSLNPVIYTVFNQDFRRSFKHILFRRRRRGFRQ

The target of assay [4] is Histamine H3 receptor (Cavia porcellus, UniProt Q9JI35).
Chain of Histamine H3 receptor (Cavia porcellus, UniProt Q9JI35) (Q9JI35 whole entry): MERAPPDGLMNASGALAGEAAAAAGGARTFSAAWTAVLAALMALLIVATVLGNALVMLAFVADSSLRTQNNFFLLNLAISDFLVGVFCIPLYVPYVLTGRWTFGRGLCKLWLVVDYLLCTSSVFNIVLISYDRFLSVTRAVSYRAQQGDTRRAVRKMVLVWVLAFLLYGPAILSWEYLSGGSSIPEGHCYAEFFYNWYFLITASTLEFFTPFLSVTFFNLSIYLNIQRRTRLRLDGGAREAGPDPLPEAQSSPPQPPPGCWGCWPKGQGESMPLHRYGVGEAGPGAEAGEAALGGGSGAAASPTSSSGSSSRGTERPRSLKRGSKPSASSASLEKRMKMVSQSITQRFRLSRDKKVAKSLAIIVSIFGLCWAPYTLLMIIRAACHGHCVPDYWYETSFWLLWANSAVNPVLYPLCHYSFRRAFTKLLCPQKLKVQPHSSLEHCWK
Assay [5] addresses Histamine H3 receptor (Homo sapiens, UniProt Q9Y5N1).

Several values for one entry are separate records, joined by “and”; a condition that tells them apart may be missing. Equal entries are not always repeated.

Chain of Hrh3 protein (Q5PPG3 whole entry): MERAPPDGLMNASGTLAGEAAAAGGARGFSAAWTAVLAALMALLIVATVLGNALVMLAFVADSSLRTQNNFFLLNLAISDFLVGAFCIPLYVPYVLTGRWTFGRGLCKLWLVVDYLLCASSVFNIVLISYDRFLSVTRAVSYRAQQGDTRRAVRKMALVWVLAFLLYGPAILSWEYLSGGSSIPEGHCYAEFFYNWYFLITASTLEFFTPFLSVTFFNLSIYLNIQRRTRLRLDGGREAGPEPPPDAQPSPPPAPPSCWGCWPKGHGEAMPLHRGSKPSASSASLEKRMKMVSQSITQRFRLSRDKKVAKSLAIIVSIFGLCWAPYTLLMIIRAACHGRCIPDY
Chain of Histamine H2 receptor (P25021 whole entry): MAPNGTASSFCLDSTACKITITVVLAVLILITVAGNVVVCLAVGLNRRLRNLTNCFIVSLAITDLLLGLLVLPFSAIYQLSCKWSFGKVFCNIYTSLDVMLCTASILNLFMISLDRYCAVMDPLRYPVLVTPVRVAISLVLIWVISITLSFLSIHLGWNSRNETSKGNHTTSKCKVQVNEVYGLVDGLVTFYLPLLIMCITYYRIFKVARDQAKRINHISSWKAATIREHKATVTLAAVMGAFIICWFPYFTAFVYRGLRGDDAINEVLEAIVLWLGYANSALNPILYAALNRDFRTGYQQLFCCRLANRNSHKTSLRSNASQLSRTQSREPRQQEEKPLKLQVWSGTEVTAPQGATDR
Chain of Histamine H1 receptor (P35367 whole entry): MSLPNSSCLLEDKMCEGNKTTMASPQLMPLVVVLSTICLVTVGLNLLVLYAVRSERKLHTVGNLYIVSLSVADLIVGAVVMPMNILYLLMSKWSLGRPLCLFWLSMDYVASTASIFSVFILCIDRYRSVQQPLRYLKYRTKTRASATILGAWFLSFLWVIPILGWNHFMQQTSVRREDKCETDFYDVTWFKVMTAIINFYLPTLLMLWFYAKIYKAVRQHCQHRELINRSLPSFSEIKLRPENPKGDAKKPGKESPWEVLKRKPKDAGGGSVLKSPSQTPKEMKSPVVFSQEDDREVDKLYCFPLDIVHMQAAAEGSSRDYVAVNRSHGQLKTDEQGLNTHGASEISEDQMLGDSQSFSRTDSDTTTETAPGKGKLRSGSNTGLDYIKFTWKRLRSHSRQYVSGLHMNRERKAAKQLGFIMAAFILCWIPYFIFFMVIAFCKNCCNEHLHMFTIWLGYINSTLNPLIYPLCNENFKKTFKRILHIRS
Chain of Histamine H4 receptor (Q9H3N8 whole entry): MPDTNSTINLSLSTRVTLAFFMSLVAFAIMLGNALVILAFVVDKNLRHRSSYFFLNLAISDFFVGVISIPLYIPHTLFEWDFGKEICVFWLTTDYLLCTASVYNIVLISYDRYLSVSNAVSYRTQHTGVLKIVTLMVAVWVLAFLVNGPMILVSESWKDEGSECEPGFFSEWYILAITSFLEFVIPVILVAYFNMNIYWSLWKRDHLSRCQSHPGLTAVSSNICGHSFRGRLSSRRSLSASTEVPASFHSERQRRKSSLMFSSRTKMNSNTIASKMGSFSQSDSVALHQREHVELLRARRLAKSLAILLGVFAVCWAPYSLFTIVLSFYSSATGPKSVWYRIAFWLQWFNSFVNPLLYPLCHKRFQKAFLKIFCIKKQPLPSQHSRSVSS
Chain of Histamine receptor H3 (Q865E3 whole entry): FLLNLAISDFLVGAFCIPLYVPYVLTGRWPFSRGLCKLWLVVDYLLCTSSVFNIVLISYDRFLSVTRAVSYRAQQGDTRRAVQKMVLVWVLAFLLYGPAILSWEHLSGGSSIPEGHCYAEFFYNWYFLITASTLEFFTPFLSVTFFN
Chain of Histamine H3 receptor (Homo sapiens, UniProt Q9Y5N1) (Q9Y5N1 whole entry): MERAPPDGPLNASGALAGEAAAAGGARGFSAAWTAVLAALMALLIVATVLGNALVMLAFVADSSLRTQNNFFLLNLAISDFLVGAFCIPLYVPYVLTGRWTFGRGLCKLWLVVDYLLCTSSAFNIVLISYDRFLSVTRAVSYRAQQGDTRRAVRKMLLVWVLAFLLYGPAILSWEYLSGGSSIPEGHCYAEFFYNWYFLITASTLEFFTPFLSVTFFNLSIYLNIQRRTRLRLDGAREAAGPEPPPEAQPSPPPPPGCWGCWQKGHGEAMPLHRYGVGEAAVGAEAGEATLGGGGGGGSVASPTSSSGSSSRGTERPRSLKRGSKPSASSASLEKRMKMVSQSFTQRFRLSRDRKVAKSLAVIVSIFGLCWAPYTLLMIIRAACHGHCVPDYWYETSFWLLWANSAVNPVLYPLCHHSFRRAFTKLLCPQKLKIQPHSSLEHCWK

In the case of `S=C(NC1CCCCC1)N1CCC(c2cnc[nH]2)CC1`, the Ki (commonly a measure of affinity in units of concentration, obtained from inhibition or displacement) is 126 nM in [1]; > 10000 nM at Histamine H2 receptor; 2290 nM in [2]; > 10000 nM on Histamine H1 receptor; 347 nM in [3]; 4.57 nM on Histamine H3 receptor [4]. The inhibition constant Ki on Hrh3 protein was 3.63 nM and 7.08 nM; on Histamine receptor H3, 6.76 nM.
`C[C@@H](NC(=O)c1ccco1)C(=O)N1CCN(CCCOc2ccc(C(=O)C3CC3)cc2)CC1`: the Ki in [1] was > 10000 nM; on Histamine H2 receptor it was > 10000 nM; in assay [2], > 10000 nM; on Histamine H1 receptor, 3980 nM; in assay [3], 2400 nM; on Histamine H3 receptor [4], 2.4 nM. Also, the Ki at Hrh3 protein is 0.71 nM and 0.72 nM; at Histamine receptor H3 it was 4.27 nM; on Histamine H4 receptor, > 10000 nM.
With `CCn1c(=O)[nH]c(=O)c2conc21` [A-304121], the Ki in [1] was > 10000 nM; at Histamine H2 receptor, > 10000 nM; at Histamine H3 receptor [5], 759 nM and 813 nM; on Histamine H1 receptor, > 10000 nM; in assay [3] it was 2880 nM; on Histamine H3 receptor [4] it was 17.4 nM. Further, the Ki at Hrh3 protein is 2.51 nM and 1.26 nM; at Histamine receptor H3, 46.8 nM; on Histamine H4 receptor it was > 10000 nM.
For `NC(=NCc1ccc(Cl)cc1)SCCCc1cnc[nH]1` [VUF 9153], the inhibition constant (Ki) in assay [1] amounted to 17.4 nM; on Histamine H2 receptor, 2510 nM; in [2], 7.41 nM; at Histamine H1 receptor, 6310 nM; in [3], 15.9 nM; on Histamine H3 receptor [4] it was 0.22 nM. Further, the Ki at Histamine receptor H3 was 0.08 nM; at Histamine H4 receptor it was 41.7 nM.
For the molecule `O=C(c1ccc(OCCCc2cnc[nH]2)cc1)C1CC1`, the Ki in [1] was 42.7 nM; on Histamine H2 receptor it was > 10000 nM; in assay [2] it was 302 nM; on Histamine H1 receptor it was > 10000 nM; at Histamine H3 receptor [4], 1.74 nM; on Hrh3 protein, 0.51 nM and 0.63 nM. Further, the values for the Ki at Histamine receptor H3 and on Histamine H4 receptor were 5.75 nM and 1860 nM, respectively.
